Measurements reported in patent US10774053B2, “HIV protease inhibitors” (Gilead Sciences, Inc., priority 2017, dated 2020).

What was measured:
recombinant HIV protease = recombinant HIV protease (Human immunodeficiency virus type 1 group M subtype B (isolate HXB2) (HIV-1), UniProt P04585); experiment: biochemical; format: biochemical; conditions: recombinant HIV protease, fluorogenic enzymatic assay; read-out: HIV PI IC50
Description: HIV Protease Enzyme Inhibition (PI) Activity
Inhibitor potency against HIV protease was measured using an enzymatic assay with a fluorogenic readout. To a reaction buffer containing 100 mM ammonium acetate at pH 5.3, 100 mM NaCl, 1 mM EDTA, 1 mM DTT, 0.25 mg/mL BSA and 1% DMSO were added 10 nM of recombinant HIV protease (concentration based on protein monomer) and test compound at one of various concentrations. […] The total volume of the assay solution was 100 μL. […] The slopes of the progress curves were the measure of reaction rates. Reaction rates were plotted as a function of inhibitor concentration, and the data were fit with a four-parameter logistic fit using Graphpad PRISM software to yield IC50 values.

[1] = Liver microsomal stability, human liver microsomes; conditions: human liver microsomes 0.5 mg/mL, 1 uM compound, NADPH-regenerating system, 37° C.
[2] = test system: HIV-1 (IIIB) in MT-4 cells; experiment: microbe, parasite or virus in culture; format: cell-based; conditions: MT-4 cells, HIV-1; read-out: MT4 EC50

SMILES: CC(C)(C)C[C@]1(c2ccc(-c3cnn(C(F)F)c3)cc2)NC(=N)N([C@H](COC(=O)NC2(C(F)(F)F)CC2)c2ccc(F)c(-n3ncnc3C(F)F)c2)C1=O [Compound 380]
- IC50 (recombinant HIV protease): 3.5 nM
- Half-life in human liver microsomes [1]: ≥ 6.58 h
- EC50 [2]: 29.2 nM
